Test results from ChEMBL document CHEMBL1133123 (J Med Chem, 2000).

Assays:
[1] = molecular target: T1, Alpha-2B adrenergic receptor (Homo sapiens, UniProt P18089); test: Binding affinity towards Alpha-2B adrenergic receptor
T1 sequence (P18089 whole entry): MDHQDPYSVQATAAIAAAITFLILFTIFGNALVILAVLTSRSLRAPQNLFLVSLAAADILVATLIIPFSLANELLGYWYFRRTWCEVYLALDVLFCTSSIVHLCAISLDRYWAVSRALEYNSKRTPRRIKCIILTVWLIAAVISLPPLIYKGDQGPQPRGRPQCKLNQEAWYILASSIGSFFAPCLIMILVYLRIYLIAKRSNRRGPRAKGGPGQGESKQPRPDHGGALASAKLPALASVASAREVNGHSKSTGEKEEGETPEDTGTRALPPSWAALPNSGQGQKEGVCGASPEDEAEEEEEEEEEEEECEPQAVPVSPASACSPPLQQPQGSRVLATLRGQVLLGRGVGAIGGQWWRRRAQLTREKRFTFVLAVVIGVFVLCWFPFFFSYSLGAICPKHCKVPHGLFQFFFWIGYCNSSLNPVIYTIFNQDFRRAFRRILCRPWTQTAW

[2] = molecular target: T2, Alpha-2A adrenergic receptor (Homo sapiens, UniProt P08913); test: Binding affinity towards Alpha-2A adrenergic receptor
T2 sequence (P08913 whole entry): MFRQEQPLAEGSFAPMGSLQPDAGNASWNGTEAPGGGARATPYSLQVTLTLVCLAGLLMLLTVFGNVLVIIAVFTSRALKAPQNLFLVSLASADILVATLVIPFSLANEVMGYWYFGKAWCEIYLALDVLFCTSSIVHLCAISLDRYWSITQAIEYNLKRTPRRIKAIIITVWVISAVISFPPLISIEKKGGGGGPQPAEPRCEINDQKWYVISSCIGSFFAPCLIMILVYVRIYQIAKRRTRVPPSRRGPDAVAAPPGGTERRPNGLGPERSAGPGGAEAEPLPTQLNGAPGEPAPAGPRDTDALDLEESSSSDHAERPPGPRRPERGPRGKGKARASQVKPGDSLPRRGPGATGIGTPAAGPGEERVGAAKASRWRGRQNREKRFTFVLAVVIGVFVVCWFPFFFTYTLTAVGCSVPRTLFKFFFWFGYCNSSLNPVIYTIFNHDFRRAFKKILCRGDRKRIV

[3] = molecular target: T3, Alpha-2C adrenergic receptor (Homo sapiens, UniProt P18825); test: Binding affinity towards alpha-2C adrenergic receptor
T3 sequence (P18825 whole entry): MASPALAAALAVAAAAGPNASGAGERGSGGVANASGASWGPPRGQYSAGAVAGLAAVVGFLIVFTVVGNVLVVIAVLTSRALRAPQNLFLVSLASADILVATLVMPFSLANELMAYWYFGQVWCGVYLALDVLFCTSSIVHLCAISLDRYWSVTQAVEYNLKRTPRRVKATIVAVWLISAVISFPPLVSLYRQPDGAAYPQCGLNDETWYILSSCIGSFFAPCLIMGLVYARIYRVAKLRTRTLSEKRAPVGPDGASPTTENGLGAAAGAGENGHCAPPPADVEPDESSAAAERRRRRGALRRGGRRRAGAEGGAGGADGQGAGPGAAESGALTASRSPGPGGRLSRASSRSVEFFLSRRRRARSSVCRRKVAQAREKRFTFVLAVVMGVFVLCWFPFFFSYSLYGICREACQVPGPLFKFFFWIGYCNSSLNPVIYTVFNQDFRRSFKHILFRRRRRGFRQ

Rattus norvegicus = organism: Rattus norvegicus; test: Selectivity ratio of alpha1/alpha2d
[4] = molecular target: T4, Alpha-2A adrenergic receptor (Homo sapiens) (UniProt P08913); test: Tested for Binding affinity towards Alpha-2A adrenergic receptor at 1 uM
T4 sequence (whole entry): T2 sequence (P08913 whole entry)

[5] = molecular target: T5, Alpha-2C adrenergic receptor (Homo sapiens) (UniProt P18825); test: Tested for Binding affinity towards alpha-2C adrenergic receptor in rat cells at 1 uM; format: cell-based
T5 sequence (whole entry): T3 sequence (P18825 whole entry)

[6] = molecular target: T1, Alpha-2B adrenergic receptor; test: Tested for Binding affinity towards alpha-2B adrenergic receptor
[7] = molecular target: T6, Alpha-2A adrenergic receptor (Rattus norvegicus, UniProt P22909); test: Binding affinity towards alpha-2D adrenergic receptor
T6 sequence (P22909 whole entry): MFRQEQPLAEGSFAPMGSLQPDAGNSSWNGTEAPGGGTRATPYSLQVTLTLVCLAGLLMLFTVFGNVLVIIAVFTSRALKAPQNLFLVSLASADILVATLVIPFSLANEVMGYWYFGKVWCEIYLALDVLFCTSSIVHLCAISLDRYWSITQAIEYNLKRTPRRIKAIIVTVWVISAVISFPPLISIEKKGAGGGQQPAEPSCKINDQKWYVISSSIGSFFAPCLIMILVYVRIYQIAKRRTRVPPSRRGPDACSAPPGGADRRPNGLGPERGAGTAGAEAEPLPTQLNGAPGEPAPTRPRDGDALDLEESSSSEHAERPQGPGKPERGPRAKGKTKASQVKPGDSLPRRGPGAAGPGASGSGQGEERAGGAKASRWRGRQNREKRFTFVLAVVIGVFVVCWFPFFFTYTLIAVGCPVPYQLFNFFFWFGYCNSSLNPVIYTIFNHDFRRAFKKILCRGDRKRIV

[8] = molecular target: T7, Adrenergic receptor alpha-1 (Rattus norvegicus, UniProt P15823+P23944+P43140); test: Tested for Binding affinity towards alpha-1 adrenergic receptor; format: protein assay
T7 sequence (P15823 whole entry): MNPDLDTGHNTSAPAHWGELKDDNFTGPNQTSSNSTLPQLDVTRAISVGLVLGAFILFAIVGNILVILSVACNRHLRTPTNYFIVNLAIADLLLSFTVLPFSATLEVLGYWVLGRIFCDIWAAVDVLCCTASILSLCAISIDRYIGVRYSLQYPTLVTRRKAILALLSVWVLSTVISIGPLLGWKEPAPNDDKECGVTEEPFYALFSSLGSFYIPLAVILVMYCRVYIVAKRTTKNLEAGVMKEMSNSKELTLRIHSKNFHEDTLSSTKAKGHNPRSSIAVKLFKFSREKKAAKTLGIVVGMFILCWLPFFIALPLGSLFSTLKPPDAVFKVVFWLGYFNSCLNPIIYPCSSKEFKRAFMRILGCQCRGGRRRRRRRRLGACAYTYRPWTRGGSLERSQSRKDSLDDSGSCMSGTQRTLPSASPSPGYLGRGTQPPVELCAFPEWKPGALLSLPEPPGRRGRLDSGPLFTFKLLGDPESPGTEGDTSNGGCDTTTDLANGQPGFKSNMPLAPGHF
T7 sequence (P23944 whole entry): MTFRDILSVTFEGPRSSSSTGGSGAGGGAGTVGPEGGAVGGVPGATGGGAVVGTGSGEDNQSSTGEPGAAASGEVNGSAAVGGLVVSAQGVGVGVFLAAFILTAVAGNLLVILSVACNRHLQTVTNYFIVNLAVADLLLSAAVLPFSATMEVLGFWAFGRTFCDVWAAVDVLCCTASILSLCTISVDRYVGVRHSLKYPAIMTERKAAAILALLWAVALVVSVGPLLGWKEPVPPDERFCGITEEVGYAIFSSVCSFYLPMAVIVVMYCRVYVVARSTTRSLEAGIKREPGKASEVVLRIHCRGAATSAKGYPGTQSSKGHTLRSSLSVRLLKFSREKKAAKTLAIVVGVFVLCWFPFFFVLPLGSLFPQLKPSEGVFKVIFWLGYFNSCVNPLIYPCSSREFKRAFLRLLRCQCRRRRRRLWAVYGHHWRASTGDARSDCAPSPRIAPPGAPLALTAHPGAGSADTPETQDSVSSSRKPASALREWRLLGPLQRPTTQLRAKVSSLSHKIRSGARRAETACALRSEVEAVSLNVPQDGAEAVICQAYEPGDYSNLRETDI
T7 sequence (P43140 whole entry): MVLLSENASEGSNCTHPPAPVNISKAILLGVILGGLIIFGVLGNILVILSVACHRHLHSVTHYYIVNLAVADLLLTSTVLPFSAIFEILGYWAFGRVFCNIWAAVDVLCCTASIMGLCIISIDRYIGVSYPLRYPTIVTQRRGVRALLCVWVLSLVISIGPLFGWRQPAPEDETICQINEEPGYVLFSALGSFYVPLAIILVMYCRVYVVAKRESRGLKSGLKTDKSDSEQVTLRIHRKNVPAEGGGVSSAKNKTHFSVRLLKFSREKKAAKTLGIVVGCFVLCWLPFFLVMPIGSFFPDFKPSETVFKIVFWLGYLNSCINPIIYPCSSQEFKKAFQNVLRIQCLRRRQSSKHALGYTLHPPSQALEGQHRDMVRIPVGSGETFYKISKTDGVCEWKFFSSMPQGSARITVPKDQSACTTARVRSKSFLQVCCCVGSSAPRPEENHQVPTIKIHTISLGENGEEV

| Structure (SMILES) | Ki [1] [nM] | Ki [2] [nM] | Ratio (Rattus norvegicus) | also measured |
| --- | --- | --- | --- | --- |
| Cc1sc(C)c2c1CCCC2c1c[nH]cn1 (stereo not drawn) | 141 | 68 | 17 | Ki [3]: 205 nM |
| c1nc(C2CCCc3ccsc32)c[nH]1 (stereo not drawn) |  |  | 260 | inhibition [4]: 87%; inhibition [5]: 54% |
| Cc1sc(C)c2c1CCC=C2c1c[nH]cn1 |  |  | 11600 |  |
| C1=C(c2cnc[nH]2)c2sccc2CC1 |  | 224 |  | Ki [6]: 940 nM |
| c1cc(-c2c[nH]cn2)c2ccsc2c1 | 663 | 277 | 132 |  |
| C1=C(c2c[nH]cn2)c2ccsc2CC1 | 621 | 254 | 295 |  |
| Cc1sc(C)c2c1CCC=C2c1cnc[nH]1 | 100 | 25 |  | Ki [7]: 8.6 nM; Ki [3]: 26 nM |
| Cc1cccc([C@H](C)c2cnc[nH]2)c1C [DEXMEDETOMIDINE] |  |  |  | Ki [7]: 0.015 nM |
| c1nc(C2CCCc3sccc32)c[nH]1 (stereo not drawn) | 99 | 27 | 196 | Ki [3]: 172 nM |
| C1=C(c2c[nH]cn2)c2sccc2CC1 |  |  | 133 |  |
| Cc1cccc([C@H](C)c2c[nH]cn2)c1C [DEXMEDETOMIDINE] |  |  | 333 | Ki [8]: 5 nM |
